Measurements reported in patent US20200246485A1, “METHOD FOR GENERATING A DIHYDROMYRICETIN (DHM) FORMULATION” (82 LABS INC, priority 2019, published 2020).
≈ marks a conversion by molar mass, not a printed value. Read-outs that look alike come from different tables or passages of the source. Blank lines part the entries; values can stand above or below the molecule they belong to.

What was measured:
[1] = cited from earlier work
DHM solubility in water = type: physicochemical
[2] = at 25° C.; background; cited from earlier work
physchem = conditions: 25° C.
[3] = in words; cited from earlier work

Compound: OC[C@H]1O[C@@H]2O[C@H]3[C@H](O)[C@@H](O)[C@@H](O[C@H]4[C@H](O)[C@@H](O)[C@@H](O[C@H]5[C@H](O)[C@@H](O)[C@@H](O[C@H]6[C@H](O)[C@@H](O)[C@@H](O[C@H]7[C@H](O)[C@@H](O)[C@@H](O[C@H]8[C@H](O)[C@@H](O)[C@@H](O[C@H]1[C@H](O)[C@H]2O)O[C@@H]8CO)O[C@@H]7CO)O[C@@H]6CO)O[C@@H]5CO)O[C@@H]4CO)O[C@@H]3CO [β-Cyclodextrin, β-cyclodextrin]
pKa value (25° C.) [1]: 12.202

Compound: OC[C@H]1O[C@@H]2O[C@H]3[C@H](O)[C@@H](O)[C@@H](O[C@H]4[C@H](O)[C@@H](O)[C@@H](O[C@H]5[C@H](O)[C@@H](O)[C@@H](O[C@H]6[C@H](O)[C@@H](O)[C@@H](O[C@H]7[C@H](O)[C@@H](O)[C@@H](O[C@H]1[C@H](O)[C@H]2O)O[C@@H]7CO)O[C@@H]6CO)O[C@@H]5CO)O[C@@H]4CO)O[C@@H]3CO [α-Cyclodextrin, α-cyclodextrin]
pKa value (25° C.) [1]: 12.331

solubility (DHM solubility in water; 100° C. (hot water)): 15500 µg/mL (≈ 48400 µM)
solubility (DHM solubility in water; water, 25 °C, water, 25° C. (room temperature), read-out: Solubility): 700 µg/mL (≈ 2190 µM)
solubility (DHM solubility in water; water, 100 °C, water, 100° C. (hot water), read-out: Solubility): 16000 µg/mL (≈ 50000 µM)
solubility (physchem): 700 µg/mL (≈ 2190 µM)
Compound: O=C1c2c(O)cc(O)cc2O[C@H](c2cc(O)c(O)c(O)c2)[C@H]1O [DHM, (2R,3R)-3,5,7-trihydroxy-2-(3,4,5-trihydroxyphenyl)-2,3-dihydrochromen-4-one]
solubility [2]: 200 µg/mL (≈ 625 µM)

Compound: OC[C@H]1O[C@H](O[C@]2(CCl)O[C@H](CCl)[C@@H](O)[C@@H]2O)[C@H](O)[C@@H](O)[C@H]1Cl [sucralose]
solubility in water [3]: freely soluble
